Legend:
Test in all cases: In Vitro Enzymatic Assay
Conditions in all cases: 25 °C
[1] = molecular target: Protein arginine N-methyltransferase 5 (Homo sapiens, UniProt O14744)
Description: (§1) All in vitro enzymatic assays were carried out by Shanghai ChemPartner Co. (998 Halei Road, Pudong New Area, Shanghai, 201203, China). To measure the IC50 values, 10 concentrations of the target compound were tested. Compounds were prepared as10 mM stock in DMSO and diluted to final concentration in DMSO when needed. The PRMT enzymes and substrates were incubated with indicated concentrations of compounds in a 384-well plate for 60 min at room temperature. After the reaction, acceptor and donor solutions were added to label the residual substrates of PRMT enzymes. The labeling process was lasting for 60 min at room temperature, followedby the reading end-point with Enspire with alpha mode.

[2] = molecular target: T1, Protein arginine N-methyltransferase 1 [11-371] (Homo sapiens, UniProt Q99873)
T1 construct: 11-371
Description: as §1

[3] = molecular target: T2, Protein arginine N-methyltransferase 7 (Homo sapiens, UniProt Q9NVM4)
T2 sequence (Q9NVM4 whole entry): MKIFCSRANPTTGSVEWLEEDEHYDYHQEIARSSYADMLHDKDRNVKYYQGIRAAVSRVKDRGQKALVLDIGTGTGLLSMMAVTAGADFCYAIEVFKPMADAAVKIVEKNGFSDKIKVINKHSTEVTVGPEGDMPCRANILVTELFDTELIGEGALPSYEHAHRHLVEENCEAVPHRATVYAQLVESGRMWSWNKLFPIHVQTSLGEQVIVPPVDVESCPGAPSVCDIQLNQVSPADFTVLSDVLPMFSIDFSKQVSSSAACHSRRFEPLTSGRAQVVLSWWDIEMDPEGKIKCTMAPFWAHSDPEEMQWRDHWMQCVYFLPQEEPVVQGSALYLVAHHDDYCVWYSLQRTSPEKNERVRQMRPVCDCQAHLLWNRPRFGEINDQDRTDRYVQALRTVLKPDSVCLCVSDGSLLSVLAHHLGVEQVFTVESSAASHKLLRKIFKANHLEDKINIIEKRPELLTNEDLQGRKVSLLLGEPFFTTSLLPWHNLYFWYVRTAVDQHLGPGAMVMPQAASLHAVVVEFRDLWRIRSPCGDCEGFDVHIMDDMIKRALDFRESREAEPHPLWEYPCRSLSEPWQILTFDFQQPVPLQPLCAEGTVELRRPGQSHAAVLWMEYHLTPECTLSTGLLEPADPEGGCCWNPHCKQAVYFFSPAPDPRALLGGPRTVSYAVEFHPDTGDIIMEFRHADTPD
Description: as §1

[4] = molecular target: Protein arginine N-methyltransferase 8 (Homo sapiens, UniProt Q9NR22)
Description: as §1

[5] = molecular target: Protein arginine N-methyltransferase 3 [N508S] (Homo sapiens, UniProt O60678, N508S)
Description: as §1

[6] = molecular target: Protein arginine N-methyltransferase 6 (Homo sapiens, UniProt Q96LA8)
Description: as §1

[7] = molecular target: T3, Histone-arginine methyltransferase CARM1 (Homo sapiens, UniProt Q86X55)
T3 sequence (Q86X55 whole entry): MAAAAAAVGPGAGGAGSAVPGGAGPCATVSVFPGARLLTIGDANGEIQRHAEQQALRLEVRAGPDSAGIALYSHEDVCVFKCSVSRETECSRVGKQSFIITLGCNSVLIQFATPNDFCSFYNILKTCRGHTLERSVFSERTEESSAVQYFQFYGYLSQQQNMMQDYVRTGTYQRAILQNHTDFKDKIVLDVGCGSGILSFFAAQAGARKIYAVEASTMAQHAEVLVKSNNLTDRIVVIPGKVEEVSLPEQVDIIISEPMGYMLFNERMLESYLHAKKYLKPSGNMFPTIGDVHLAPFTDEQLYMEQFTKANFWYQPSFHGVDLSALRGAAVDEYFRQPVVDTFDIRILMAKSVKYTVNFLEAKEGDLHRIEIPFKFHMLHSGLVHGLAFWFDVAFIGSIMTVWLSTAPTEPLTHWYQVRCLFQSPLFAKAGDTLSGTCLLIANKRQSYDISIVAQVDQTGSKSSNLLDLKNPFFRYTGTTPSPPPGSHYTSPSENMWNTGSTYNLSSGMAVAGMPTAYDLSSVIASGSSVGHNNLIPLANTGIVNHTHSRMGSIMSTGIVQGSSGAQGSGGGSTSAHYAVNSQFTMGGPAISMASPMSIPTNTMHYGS
Description: as §1

Protein arginine N-methyltransferase 5, sequence (O14744 whole entry): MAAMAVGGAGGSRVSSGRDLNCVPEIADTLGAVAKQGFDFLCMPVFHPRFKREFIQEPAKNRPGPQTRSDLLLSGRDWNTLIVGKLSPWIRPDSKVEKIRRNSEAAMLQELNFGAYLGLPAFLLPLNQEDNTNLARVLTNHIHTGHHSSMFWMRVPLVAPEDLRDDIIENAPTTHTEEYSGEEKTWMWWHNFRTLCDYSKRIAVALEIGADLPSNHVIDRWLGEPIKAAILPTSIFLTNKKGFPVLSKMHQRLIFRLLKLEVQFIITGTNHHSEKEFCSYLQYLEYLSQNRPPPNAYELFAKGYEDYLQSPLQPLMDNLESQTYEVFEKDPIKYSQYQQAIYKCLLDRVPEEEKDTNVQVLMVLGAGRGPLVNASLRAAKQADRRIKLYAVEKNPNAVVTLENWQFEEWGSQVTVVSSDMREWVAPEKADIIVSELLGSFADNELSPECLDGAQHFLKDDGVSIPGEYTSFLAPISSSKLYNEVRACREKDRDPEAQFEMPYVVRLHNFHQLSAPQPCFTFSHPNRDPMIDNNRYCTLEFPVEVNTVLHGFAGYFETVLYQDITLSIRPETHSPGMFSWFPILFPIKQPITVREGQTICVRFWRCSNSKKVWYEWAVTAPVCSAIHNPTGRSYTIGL
Protein arginine N-methyltransferase 3 [N508S], sequence (O60678 2-531 N508S limits assumed): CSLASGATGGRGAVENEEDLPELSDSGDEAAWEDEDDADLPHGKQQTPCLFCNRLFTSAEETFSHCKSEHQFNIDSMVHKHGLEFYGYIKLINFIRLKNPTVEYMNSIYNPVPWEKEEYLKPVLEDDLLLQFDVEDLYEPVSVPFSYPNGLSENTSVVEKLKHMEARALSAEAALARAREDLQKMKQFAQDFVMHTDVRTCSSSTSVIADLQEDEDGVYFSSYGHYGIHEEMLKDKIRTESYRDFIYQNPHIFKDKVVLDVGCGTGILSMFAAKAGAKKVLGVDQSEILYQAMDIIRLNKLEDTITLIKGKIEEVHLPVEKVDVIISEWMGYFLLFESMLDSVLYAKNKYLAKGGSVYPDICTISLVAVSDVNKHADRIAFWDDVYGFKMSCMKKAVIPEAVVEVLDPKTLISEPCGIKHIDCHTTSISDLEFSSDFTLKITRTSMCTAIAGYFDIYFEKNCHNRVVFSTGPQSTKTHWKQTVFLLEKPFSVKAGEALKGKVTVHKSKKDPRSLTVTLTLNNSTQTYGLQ
T1 sequence (Q99873 11-371): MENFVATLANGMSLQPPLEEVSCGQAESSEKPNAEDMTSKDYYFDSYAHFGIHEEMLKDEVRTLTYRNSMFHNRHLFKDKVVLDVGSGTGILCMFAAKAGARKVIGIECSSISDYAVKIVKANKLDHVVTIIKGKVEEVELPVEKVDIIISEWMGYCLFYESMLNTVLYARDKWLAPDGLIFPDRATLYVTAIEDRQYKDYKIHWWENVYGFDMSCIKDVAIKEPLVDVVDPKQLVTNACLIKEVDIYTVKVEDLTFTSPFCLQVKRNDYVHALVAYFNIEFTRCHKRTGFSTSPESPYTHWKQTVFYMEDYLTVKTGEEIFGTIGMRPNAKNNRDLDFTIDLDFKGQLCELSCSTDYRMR
Protein arginine N-methyltransferase 6, sequence (Q96LA8 whole entry): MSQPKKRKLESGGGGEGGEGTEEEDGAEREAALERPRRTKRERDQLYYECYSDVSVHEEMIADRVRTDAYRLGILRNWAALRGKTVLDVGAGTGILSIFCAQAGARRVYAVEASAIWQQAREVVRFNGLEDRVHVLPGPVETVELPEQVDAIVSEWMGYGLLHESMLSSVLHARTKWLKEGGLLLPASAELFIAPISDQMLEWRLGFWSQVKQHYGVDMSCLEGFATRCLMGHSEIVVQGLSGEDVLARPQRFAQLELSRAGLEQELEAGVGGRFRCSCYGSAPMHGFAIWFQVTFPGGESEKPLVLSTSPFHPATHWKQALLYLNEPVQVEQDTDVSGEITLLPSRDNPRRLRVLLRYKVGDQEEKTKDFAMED
Protein arginine N-methyltransferase 8, sequence (Q9NR22 whole entry): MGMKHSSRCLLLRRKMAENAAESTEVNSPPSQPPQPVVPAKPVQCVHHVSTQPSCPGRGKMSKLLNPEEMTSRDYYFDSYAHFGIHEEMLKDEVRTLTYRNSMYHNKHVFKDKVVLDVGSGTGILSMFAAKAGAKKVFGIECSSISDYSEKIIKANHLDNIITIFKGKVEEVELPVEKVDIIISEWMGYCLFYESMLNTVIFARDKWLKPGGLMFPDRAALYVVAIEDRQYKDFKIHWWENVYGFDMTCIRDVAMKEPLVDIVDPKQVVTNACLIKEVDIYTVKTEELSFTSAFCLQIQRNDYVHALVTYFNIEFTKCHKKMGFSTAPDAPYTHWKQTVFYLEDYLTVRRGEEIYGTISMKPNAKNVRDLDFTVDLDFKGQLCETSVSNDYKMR

| SMILES | IC50 [1] [µM] | further results |
| --- | --- | --- |
| COc1ccc(-c2ccc(/C=N/NC(N)=O)o2)cc1 [2-((5-(4-methoxyphenyl)furan-2-yl)methylene)hydrazinecarboxamide (4h)] | 2.1 | – |
| NC(=O)N/N=C/c1cccc(-c2ccc(Cl)cc2)n1 [2-((6-(4-chlorophenyl)pyridin-2-yl)methylene)hydrazinecarboxamide (9g)] | 3.5 | – |
| NC(=O)N/N=C/c1cccc(-c2ccc(Cl)cc2)c1 [2-((4′-chloro-[1,1′-biphenyl]-3-yl)methylene)hydrazinecarboxamide (9b)] | 3.8 | – |
| NC(=O)N/N=C/c1cncc(-c2ccc(Cl)cc2)c1 [2-((5-(4-chlorophenyl)pyridin-3-yl)methylene)hydrazinecarboxamide (9f)] | 6.9 | – |
| NC(=O)N/N=C/c1ccc(-c2ccc(Cl)cc2N)o1 [2-((5-(2-amino-4-chlorophenyl)furan-2-yl)methylene)hydrazinecarboxamide (4m)] | 13 | – |
| NC(=O)N/N=C/c1ccc(-c2ccc([N+](=O)[O-])cc2)o1 [2-((5-(4-nitrophenyl)furan-2-yl)methylene)hydrazinecarboxamide (4g)] | 18 | – |
| NC(=O)N/N=C/c1ccc(-c2ccc(F)cc2)o1 [2-((5-(4-fluorophenyl)furan-2-yl)methylene)hydrazinecarboxamide (4e)] | 12 | – |
| NC(=O)N/N=C/c1ccc(-c2ccccc2)o1 [2-((5-phenylfuran-2-yl)methylene)hydrazinecarboxamide (4a)] | 12 | – |
| NC(=O)N/N=C/c1ccc(-c2cccc(F)c2)o1 [2-((5-(3-fluorophenyl)furan-2-yl)methylene)hydrazinecarboxamide (4d)] | 14 | – |
| NC(=O)N/N=C/c1ccc(-c2ccc(N)cc2)o1 [2-((5-(4-aminophenyl)furan-2-yl)methylene)hydrazinecarboxamide (4j)] | 40 | – |
| O=C1NC(=S)NC(=O)C1=Cc1ccc(-c2ccc(Cl)cc2)o1 [5-{[5-(4-chlorophenyl)furan-2-yl]methylidene}-2-sulfanylidene-1,3-diazinane-4,6-dione] | 67 | – |
| NC(=S)N/N=C/c1ccc(-c2ccc(Cl)cc2)o1 [P5i-7] | 0.72 | – |
| NC(=O)N/N=C/c1ccc(-c2ccc(Cl)cc2)o1 [P5i-6] | – | IC50 [2]: > 100 µM; IC50 [3]: > 100 µM; IC50 [4]: > 100 µM; IC50 [5]: > 100 µM; IC50 [6]: > 100 µM; IC50 [7]: > 100 µM |

From BindingDB's records for doi:10.1111/cbdd.12881 (Sichuan University, 2017)
